Experimental data: patent US20070128217A1 (priority 2003, published 2007)

Legend:
[1] = test system: antibodies in sera from SARS patients (sera 1a, 1b, 2, 6, 37, 62, London, SARS-yellow, SARS-green); type: binding, human; set-up: Binding of serum 6 to linear peptides of protein X1 of SARS-CoV Urbani / Binding of serum 37 to linear peptides of protein X1 of SARS-CoV Urbani / Binding of serum 6 to looped/cyclic peptide (PEPSCAN-ELISA) / Binding of serum 37 to looped/cyclic peptide (PEPSCAN-ELISA) / Binding of serum 37 to looped/cyclic peptides of protein X1 of SARS-CoV Urbani / Binding of serum 6 to linear peptides of protein X2 / Binding of serum 37 to linear peptides of protein X2 / Binding of serum 37 to looped/cyclic peptides of protein X2 of SARS-CoV Urbani / Binding of serum 6 to linear peptides of protein M of SARS-CoV Urbani / Binding of serum 37 to linear peptides of protein M of SARS-CoV Urbani / Binding of serum 6 to looped/cyclic peptides of protein M of SARS-CoV Urbani / Binding of serum 37 to looped/cyclic peptides of protein M of SARS-CoV Urbani / Binding of serum 6 to linear peptides of protein X3 of SARS-CoV Urbani / Binding of serum 37 to linear peptides of protein X3 of SARS-CoV Urbani / Binding of serum 37 to looped/cyclic peptides of protein X3 of SARS-CoV Urbani / Binding of serum 6 to linear peptides of protein X4 of SARS-CoV Urbani / Binding of serum 37 to linear peptides of protein X4 of SARS-CoV Urbani / Binding of serum 37 to looped/cyclic peptides of protein X4 of SARS-CoV Urbani / Binding of serum 6 to linear peptides of protein X5 of SARS-CoV Urbani / Binding of serum 37 to linear peptides of protein X5 of SARS-CoV Urbani / Binding of serum 37 to looped/cyclic peptides of protein X5 of SARS-CoV Urbani / Binding of serum 6 to linear peptides of protein N of SARS-CoV Urbani / Binding of serum 37 to linear peptides of protein N of SARS-CoV Urbani / Binding of serum 6 to linear peptide (PEPSCAN-ELISA) / Binding of serum 1a to looped/cyclic peptides of protein N of SARS-CoV Urbani / Binding of serum 1b to looped/cyclic peptides of protein N of SARS-CoV Urbani / Binding of serum 2 to looped/cyclic peptides of protein N of SARS-CoV Urbani / Binding of serum 6 to looped/cyclic peptides of protein N of SARS-CoV Urbani / Binding of serum 37 to looped/cyclic peptides of protein N of SARS-CoV Urbani / Binding of serum 62 to looped/cyclic peptides of protein N of SARS-CoV Urbani / Binding of serum London to looped/cyclic peptides of protein N of SARS-CoV Urbani / Binding of serum SARS-green to looped/cyclic peptides of protein N of SARS-CoV Urbani: unit not given here
[2] = test system: control sera (pooled serum of ten healthy LUMC hospital workers; commercial negative donor pooled serum from the Dutch bloodbank); type: binding, human; set-up: Binding of Control serum LUMC to linear peptides / Binding of Control serum Blood-bank to linear peptides / Binding of Control serum LUMC to looped peptides / Binding of Control Serum Blood-Bank to Looped peptides / Binding of Control serum LUMC to linear peptides of the protein M of SARS-CoV Urbani / Binding of Control serum Blood-bank to linear peptides of the protein M of SARS-CoV Urbani / Binding of Control serum LUMC to looped peptides of the protein M of SARS-CoV Urbani / Binding of Control Serum Blood-Bank to Looped peptides of the protein M of SARS-CoV Urbani: unit not given here
[3] = test system: rabbit serum obtained by immunizing a rabbit with the SARS-CoV strain Frankfurt 1; type: binding; set-up: Binding of a rabbit serum to linear peptides / Binding of a rabbit serum to looped peptides / Rabbit serum linear peptides / Rabbit serum looped peptides / Binding of a rabbit serum to linear peptides of protein N of SARS-CoV Urbani (Rabbit serum linear peptides) / Binding of a rabbit serum to looped/cyclic peptides of protein N of SARS-CoV Urbani (Rabbit serum looped peptides): unit not given here

LVAAGMEAQFLYLYA
Binding of serum 1a to linear peptides of protein X1 of SARS-CoV Urbani [1]: 0.8 | Binding of serum 1a to looped/cyclic peptide (PEPSCAN-ELISA) [1]: 0.5 | Binding of serum 1b to linear peptides of protein X1 of SARS-CoV Urbani [1]: 0.7 | Binding of serum 1b to looped/cyclic peptide (PEPSCAN-ELISA) [1]: 0.4 | Binding of serum 2 to linear peptides of protein X1 of SARS-CoV Urbani [1]: 0.6 | Binding of serum 2 to looped/cyclic peptide (PEPSCAN-ELISA) [1]: 0.5 | Binding of serum 6 to linear peptides of protein X1 of SARS-CoV Urbani [1]: 0.4 | Binding of serum 6 to looped/cyclic peptide (PEPSCAN-ELISA) [1]: 0.3 | Binding of serum 37 to linear peptides of protein X1 of SARS-CoV Urbani [1]: 0.6 | Binding of serum 37 to looped/cyclic peptide (PEPSCAN-ELISA) [1]: 0.5 | Binding of serum 62 to linear peptides of protein X1 of SARS-CoV Urbani [1]: 0.5 | Binding of serum 62 to looped/cyclic peptide (PEPSCAN-ELISA) [1]: 0.5 | Binding of serum London to linear peptides of protein X1 of SARS-CoV Urbani [1]: 0.2 | Binding of serum London to looped/cyclic peptide (PEPSCAN-ELISA) [1]: 0.2 | Binding of serum SARS-green to linear peptides of protein X1 of SARS-CoV Urbani [1]: 0.2 | Binding of serum SARS-green to looped/cyclic peptide (PEPSCAN-ELISA) [1]: 0.3 | Binding of serum SARS-yellow to linear peptides of protein X1 of SARS-CoV Urbani [1]: 0.3 | Binding of serum SARS-yellow to looped/cyclic peptide (PEPSCAN-ELISA) [1]: 0.6 | Binding of Control Serum Blood-Bank to Looped peptides [2]: 0.5 | Binding of Control serum Blood-bank to linear peptides [2]: 0.4 | Binding of Control serum LUMC to linear peptides [2]: 1.1 | Binding of Control serum LUMC to looped peptides [2]: 0.6 | Binding of a rabbit serum to linear peptides [3]: 0.1 | Binding of a rabbit serum to looped peptides [3]: 0.6

AFACADGTRHTYQLR
Binding of serum 1a to linear peptides of protein X4 of SARS-CoV Urbani [1]: 0.6 | Binding of serum 1a to looped/cyclic peptides of protein X4 of SARS-CoV Urbani [1]: 0.6 | Binding of serum 1b to linear peptides of protein X4 of SARS-CoV Urbani [1]: 0.4 | Binding of serum 1b to looped/cyclic peptides of protein X4 of SARS-CoV Urbani [1]: 0.4 | Binding of serum 2 to linear peptides of protein X4 of SARS-CoV Urbani [1]: 0.4 | Binding of serum 2 to looped/cyclic peptides of protein X4 of SARS-CoV Urbani [1]: 0.8 | Binding of serum 6 to linear peptides of protein X4 of SARS-CoV Urbani [1]: 0.5 | Binding of serum 6 to looped/cyclic peptides of protein X4 of SARS-CoV Urbani [1]: 0.9 | Binding of serum 37 to linear peptides of protein X4 of SARS-CoV Urbani [1]: 0.6 | Binding of serum 37 to looped/cyclic peptides of protein X4 of SARS-CoV Urbani [1]: 0.6 | Binding of serum 62 to linear peptides of protein X4 of SARS-CoV Urbani [1]: 0.7 | Binding of serum 62 to looped/cyclic peptides of protein X4 of SARS-CoV Urbani [1]: 0.5 | Binding of serum London to linear peptides of protein X4 of SARS-CoV Urbani [1]: 0.6 | Binding of serum London to looped/cyclic peptides of protein X4 of SARS-CoV Urbani [1]: 0.4 | Binding of serum SARS-green to linear peptides of protein X4 of SARS-CoV Urbani [1]: 0.4 | Binding of serum SARS-green to looped/cyclic peptides of protein X4 of SARS-CoV Urbani [1]: 0.5 | Binding of serum SARS-yellow to linear peptides of protein X4 of SARS-CoV Urbani [1]: 0.2 | Binding of serum SARS-yellow to looped/cyclic peptides of protein X4 of SARS-CoV Urbani [1]: 0.4 | Binding of Control Serum Blood-Bank to Looped peptides [2]: 0.7 | Binding of Control serum Blood-bank to linear peptides [2]: 0.6 | Binding of Control serum LUMC to linear peptides [2]: 0.5 | Binding of Control serum LUMC to looped peptides [2]: 0.8 | Rabbit serum linear peptides [3]: 0.5 | Rabbit serum looped peptides [3]: 0.1

CINACRIIMRCWLCW
Binding of serum 1a to linear peptides of protein X1 of SARS-CoV Urbani [1]: 0.8 | Binding of serum 1a to looped/cyclic peptide (PEPSCAN-ELISA) [1]: 0.7 | Binding of serum 1b to linear peptides of protein X1 of SARS-CoV Urbani [1]: 0.5 | Binding of serum 1b to looped/cyclic peptide (PEPSCAN-ELISA) [1]: 0.4 | Binding of serum 2 to linear peptides of protein X1 of SARS-CoV Urbani [1]: 0.5 | Binding of serum 2 to looped/cyclic peptide (PEPSCAN-ELISA) [1]: 0.6 | Binding of serum 6 to linear peptides of protein X1 of SARS-CoV Urbani [1]: 0.7 | Binding of serum 6 to looped/cyclic peptide (PEPSCAN-ELISA) [1]: 0.7 | Binding of serum 37 to linear peptides of protein X1 of SARS-CoV Urbani [1]: 0.6 | Binding of serum 37 to looped/cyclic peptide (PEPSCAN-ELISA) [1]: 0.6 | Binding of serum 62 to linear peptides of protein X1 of SARS-CoV Urbani [1]: 0.7 | Binding of serum 62 to looped/cyclic peptide (PEPSCAN-ELISA) [1]: 0.7 | Binding of serum London to linear peptides of protein X1 of SARS-CoV Urbani [1]: 0.4 | Binding of serum London to looped/cyclic peptide (PEPSCAN-ELISA) [1]: 0.8 | Binding of serum SARS-green to linear peptides of protein X1 of SARS-CoV Urbani [1]: 0.2 | Binding of serum SARS-green to looped/cyclic peptide (PEPSCAN-ELISA) [1]: 0.3 | Binding of serum SARS-yellow to linear peptides of protein X1 of SARS-CoV Urbani [1]: 0.4 | Binding of serum SARS-yellow to looped/cyclic peptide (PEPSCAN-ELISA) [1]: 0.5 | Binding of Control Serum Blood-Bank to Looped peptides [2]: 0.8 | Binding of Control serum Blood-bank to linear peptides [2]: 0.7 | Binding of Control serum LUMC to linear peptides [2]: 0.8 | Binding of Control serum LUMC to looped peptides [2]: 0.7 | Recognition of the peptide by the rabbit serum [3]: recognized

WSFNPETNILLNVPL
Binding of serum 1a to linear peptides of protein M of SARS-CoV Urbani [1]: 1.5 | Binding of serum 1a to looped/cyclic peptides of protein M of SARS-CoV Urbani [1]: 0.8 | Binding of serum 1b to linear peptides of protein M of SARS-CoV Urbani [1]: 1.7 | Binding of serum 1b to looped/cyclic peptides of protein M of SARS-CoV Urbani [1]: 0.5 | Binding of serum 2 to linear peptides of protein M of SARS-CoV Urbani [1]: 1.3 | Binding of serum 2 to looped/cyclic peptides of protein M of SARS-CoV Urbani [1]: 0.6 | Binding of serum 6 to linear peptides of protein M of SARS-CoV Urbani [1]: 1.0 | Binding of serum 6 to looped/cyclic peptides of protein M of SARS-CoV Urbani [1]: 0.5 | Binding of serum 37 to linear peptides of protein M of SARS-CoV Urbani [1]: 0.9 | Binding of serum 37 to looped/cyclic peptides of protein M of SARS-CoV Urbani [1]: 0.7 | Binding of serum 62 to linear peptides of protein M of SARS-CoV Urbani [1]: 1.3 | Binding of serum 62 to looped/cyclic peptides of protein M of SARS-CoV Urbani [1]: 0.7 | Binding of serum London to linear peptides of protein M of SARS-CoV Urbani [1]: 1.0 | Binding of serum London to looped/cyclic peptides of protein M of SARS-CoV Urbani [1]: 0.2 | Binding of serum SARS-green to linear peptides of protein M of SARS-CoV Urbani [1]: 1.5 | Binding of serum SARS-green to looped/cyclic peptides of protein M of SARS-CoV Urbani [1]: 0.2 | Binding of serum SARS-yellow to linear peptides of protein M of SARS-CoV Urbani [1]: 1.1 | Binding of serum SARS-yellow to looped/cyclic peptides of protein M of SARS-CoV Urbani [1]: 0.8 | Binding of Control Serum Blood-Bank to Looped peptides of the protein M of SARS-CoV Urbani [2]: 0.6 | Binding of Control serum Blood-bank to linear peptides of the protein M of SARS-CoV Urbani [2]: 1.3 | Binding of Control serum LUMC to linear peptides of the protein M of SARS-CoV Urbani [2]: 1.5 | Binding of Control serum LUMC to looped peptides of the protein M of SARS-CoV Urbani [2]: 0.8 | Rabbit serum linear peptides [3]: 0.3 | Rabbit serum looped peptides [3]: 0.3

ILRIGTQVLKTMSLY
Binding of serum 1a to linear peptides of protein X2 [1]: 0.7 | Binding of serum 1a to looped/cyclic peptides of protein X2 of SARS-CoV Urbani [1]: 0.6 | Binding of serum 1b to linear peptides of protein X2 [1]: 0.5 | Binding of serum 1b to looped/cyclic peptides of protein X2 of SARS-CoV Urbani [1]: 0.5 | Binding of serum 2 to linear peptides of protein X2 [1]: 0.4 | Binding of serum 2 to looped/cyclic peptides of protein X2 of SARS-CoV Urbani [1]: 0.3 | Binding of serum 6 to linear peptides of protein X2 [1]: 0.4 | Binding of serum 6 to looped/cyclic peptides of protein X2 of SARS-CoV Urbani [1]: 0.5 | Binding of serum 37 to linear peptides of protein X2 [1]: 0.6 | Binding of serum 37 to looped/cyclic peptides of protein X2 of SARS-CoV Urbani [1]: 0.5 | Binding of serum 62 to linear peptides of protein X2 [1]: 0.6 | Binding of serum 62 to looped/cyclic peptides of protein X2 of SARS-CoV Urbani [1]: 0.6 | Binding of serum London to linear peptides of protein X2 [1]: 0.4 | Binding of serum London to looped/cyclic peptides of protein X2 of SARS-CoV Urbani [1]: 0.3 | Binding of serum SARS-green to linear peptides of protein X2 [1]: 0.4 | Binding of serum SARS-green to looped/cyclic peptides of protein X2 of SARS-CoV Urbani [1]: 0.3 | Binding of serum SARS-yellow to linear peptides of protein X2 [1]: 0.5 | Binding of serum SARS-yellow to looped/cyclic peptides of protein X2 of SARS-CoV Urbani [1]: 0.6 | Binding of Control Serum Blood-Bank to Looped peptides [2]: 0.7 | Binding of Control serum Blood-bank to linear peptides [2]: 0.6 | Binding of Control serum LUMC to linear peptides [2]: 0.4 | Binding of Control serum LUMC to looped peptides [2]: 0.7 | Binding of a rabbit serum to linear peptides [3]: 0.3 | Binding of a rabbit serum to looped peptides [3]: 0.5
